Results published in patent US20240383856A1 (Zedira GmbH, priority 2021, published 2024).

Assays:
[1] = target: T1, recombinant human transglutaminase 2 (Homo sapiens, UniProt P21980); experiment: Transglutaminase assay (DCC-assay): incorporation of dansylcadaverine into dimethylcasein; type: biochemical; conditions: recombinant human TG2 10 nM; dansylcadaverine incorporation into dimethylcasein; read-out: IC50 TG2
T1 construct: purchased Zedira T022
T1 sequence (P21980 1-687): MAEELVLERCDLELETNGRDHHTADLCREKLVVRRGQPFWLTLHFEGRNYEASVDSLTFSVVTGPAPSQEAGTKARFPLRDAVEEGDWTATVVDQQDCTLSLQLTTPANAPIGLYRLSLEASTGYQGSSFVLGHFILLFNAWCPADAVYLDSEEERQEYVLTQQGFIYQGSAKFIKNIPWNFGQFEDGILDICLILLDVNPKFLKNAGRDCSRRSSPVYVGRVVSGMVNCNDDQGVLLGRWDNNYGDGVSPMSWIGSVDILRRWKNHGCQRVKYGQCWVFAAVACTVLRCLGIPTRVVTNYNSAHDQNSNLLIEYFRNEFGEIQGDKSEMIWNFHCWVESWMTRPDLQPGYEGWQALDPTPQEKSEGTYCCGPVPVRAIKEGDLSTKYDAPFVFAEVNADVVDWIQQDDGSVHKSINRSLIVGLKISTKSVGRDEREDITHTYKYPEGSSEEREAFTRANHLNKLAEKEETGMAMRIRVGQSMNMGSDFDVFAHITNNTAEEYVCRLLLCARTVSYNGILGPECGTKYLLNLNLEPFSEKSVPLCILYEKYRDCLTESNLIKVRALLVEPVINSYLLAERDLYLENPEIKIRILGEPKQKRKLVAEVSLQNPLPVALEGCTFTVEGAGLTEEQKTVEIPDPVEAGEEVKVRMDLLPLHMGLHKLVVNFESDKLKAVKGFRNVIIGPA
Description: To illustrate the advantage of branched alkyl moieties over aromatic moieties, we refer to reference compounds Ref. 2 (ZED1227, U.S. Pat. No. 9,434,763 B2) and Ref. 3 (A8, ZED1047). Inhibition data were determined using the classical fluorescent transamidation assay (dansylcadaverine incorporation into methylated casein, DCC-assay) as described [Buchold, C.; Hils, M.; Gerlach, U.; Weber, J.; Pelzer, C.; Heil, A.; Aeschlimann, D.; Pasternack, R. Features of ZED1227: The First-In-Class Tissue Transglutaminase Inhibitor Undergoing Clinical Evaluation for the Treatment of Celiac Disease. Cells 2022, 11, 1667. https://doi.org/10.3390/cells11101667]. Casein is one of the best known high molecular weight (24 kDa) protein substrates for transglutaminases. Please note, the IC50 value of Ref. 3 (A8) published in U.S. Pat. No. 9,434,763 B2 cannot be compared to the present data, relying on a fluorogenic isopeptidase assay.
To this extent, inhibition data were determined using the classical fluorescent transamidation assay (dansylcadaverine incorporation into methylated casein, DCC-assay) as described in Büchold et al. [Büchold, C.; Hils, M.; Gerlach, U.; Weber, J.; Pelzer, C.; Heil, A.; Aeschlimann, D.; Pasternack, R. Features of ZED1227: The First-In-Class Tissue Transglutaminase Inhibitor Undergoing Clinical Evaluation for the Treatment of Celiac Disease. Cells 2022, 11, 1667. https://doi.org/10.3390/cells11101667]. Casein is one of the best known high molecular weight (24 kDa) protein substrates for transglutaminases. Inhibition data of the inventive compounds was compared with inhibition of compounds disclosed in U.S. Pat. No. 9,434,763 B2, particularly, compound A8, which is denoted herein as Reference 3. It is noteworthy that the IC50 values of compounds A8 published in U.S. Pat. No. 9,434,763 B2 and E16 from U.S. Pat. No. 11,072,634 B2 cannot be compared to the present data, relying on a fluorogenic isopeptidase assay.
For the determination of potency of inhibitors against tissue transglutaminase, the incorporation of dansylcadaverine into dimethylcasein (Zedira product T036, Lorand et al., Anal Biochem, 1971, 44:221-31) was measured using recombinant human transglutaminase 2 (Zedira Product T022).
The tissue transglutaminase is diluted in buffer (50 mM Tris-HCl, 7.5 mM CaCl2), 150 mM NaCl, pH=7.4). The final concentration of TG2 in the assay is 10 nM.
A 10 mM inhibitor stock solution is prepared in DMSO, and from this a serial 1:2-fold dilution series is prepared also in DMSO. Each of the initial dilutions is subsequently diluted 1:50-fold with buffer (50 mM Tris-HCl, 7.5 mM CaCl2), 150 mM NaCl, pH=7.4) to yield the final working dilutions containing 2% (v/v) DMSO.
15 μl of inhibitor working dilution are added per well of a 96 well microtiter plate. As control, 15 μl of a 2% (v/v) DMSO solution prepared using the buffer mentioned above are added per well.
Immediately before starting the assay, 600 μl transglutaminase working solution are added to 11.4 ml assay buffer (50 mM Tris-HCl, 10 mM CaCl2), 10 mM glutathione, 2.5% glycerol, 16.7 µM dansylcadaverine, 4 uM N,N-dimethylcasein, 200 mM NaCl, pH=8.0). 285 μl of this reaction mix are added per well containing the inhibitor.
Increase in fluorescence is measured using λex=330 nm and λem=500 nm at 37° C. for 30 min. A slope of the increase in fluorescence between 20 and 30 min is calculated for determination of the IC50 value (inhibitor concentration at which 50% of the initial activity is blocked).
Analysis of enzymatic activity is performed by calculation of the slope of an increase in fluorescence intensity. IC50 values are calculated by plotting the enzymatic activity (as percentage from control containing 2% DMSO instead of inhibitor) against the inhibitor concentration. IC50 is defined as the inhibitor concentration blocking 50% of initial enzyme activity.

[2] = logD by shake flask method (octanol / PBS pH 7.4, HPLC); type: physicochemical; conditions: octanol / PBS pH 7.4, shake flask
Description: In order to classify the inventive compounds according to their lipophilicity, LogD values (distribution coefficient) were determined by means of the well-established shake flask method, measuring the partition of a compound between an octanol and phosphate-buffered saline (PBS, pH 7.4) by HPLC.
The LogD is pH dependent and is a “predictor” for in-vivo properties. LogD combines lipophilicity (intrinsic structural property of the molecule, logP) and ionizability (pKa). Compounds with a moderate lipophilicity (LogD values from 0 to 3) are usually advantaged for oral absorption, being in balance between solubility and permeability. However, sophisticated formulation of a compound might improve oral bioavailability for highly lipophilic compounds.

[3] = Caco-2 permeability assay (CacoReady kit); type: in vitro ADME; conditions: human, Caco-2, Caco-2 barrier, CacoReady kit; above 1×10^−6 cm/s classified as permeable
Description: Permeability coefficients (Papp values) were obtained from Caco-2 barrier studies predicting oral/intestinal bioavailability of the tested compounds. The assays were performed by using CacoReady™ ready-to-use kits from ReadyCell according to the manufacturers protocol.

| SMILES | IC50 [1] [nM] | logD [2] | Papp [3] [×10⁻⁶ cm/s] |
| --- | --- | --- | --- |
| CNC(=O)C(=O)CC[C@H](NC(=O)c1csc(Br)c1)C(=O)Nc1cccn(CC(=O)NC2C3CC4CC(C3)CC2C4)c1=O (stereo partly drawn) [II-30, (S)-2-(5-bromothiophene-3-carboxamido)-N1-(1-(2-(2-adamantylamino)-2-oxoethyl)-2-oxo-1,2-dihydropyridin-3-yl)-N6-methyl-5-oxohexanediamide] | < 40 | 3 to 5 | 1 to 10 |
| CNC(=O)C(=O)CC[C@H](NC(=O)c1nc(Cl)sc1C)C(=O)Nc1cccn(CC(=O)NC2C3CC4CC(C3)CC2C4)c1=O (stereo partly drawn) [II-31, (S)-2-(2-chloro-5-methylthiazole-4-carboxamido)-N1-(1-(2-(2-adamantylamino)-2-oxoethyl)-2-oxo-1,2-dihydropyridin-3-yl)-N6-methyl-5-oxohexanediamide] | 40 to 400 | 1 to 3 | 1 to 10 |
| CNC(=O)C(=O)CC[C@H](NC(=O)c1nc(Cl)sc1Cl)C(=O)Nc1cccn(CC(=O)NC2C3CC4CC(C3)CC2C4)c1=O (stereo partly drawn) [II-32, (S)-2-(2,5-dichlorothiazole-4-carboxamido)-N1-(1-(2-(2-adamantylamino)-2-oxoethyl)-2-oxo-1,2-dihydropyridin-3-yl)-N6-methyl-5-oxohexanediamide] | 40 to 400 | 1 to 3 | 1 to 10 |
| CNC(=O)C(=O)CC[C@H](NC(=O)c1nc(Br)sc1Br)C(=O)Nc1cccn(CC(=O)NC2C3CC4CC(C3)CC2C4)c1=O (stereo partly drawn) [II-33, (S)-2-(2,5-dibromothiazole-4-carboxamido)-N1-(1-(2-(2-adamantylamino)-2-oxoethyl)-2-oxo-1,2-dihydropyridin-3-yl)-N6-methyl-5-oxohexanediamide] | 40 to 400 | 1 to 3 | > 10 |
| CNC(=O)C(=O)CC[C@H](NC(=O)c1nc(Br)sc1C)C(=O)Nc1cccn(CC(=O)NC2C3CC4CC(C3)CC2C4)c1=O (stereo partly drawn) [II-34, (S)-2-(2-bromo-5-methylthiazole-4-carboxamido)-N1-(1-(2-(2-adamantylamino)-2-oxoethyl)-2-oxo-1,2-dihydropyridin-3-yl)-N6-methyl-5-oxohexanediamide] | 40 to 400 | 1 to 3 | > 10 |
| CNC(=O)C(=O)CC[C@H](NC(=O)c1csc(Br)n1)C(=O)Nc1cccn(CC(=O)NC2C3CC4CC(C3)CC2C4)c1=O (stereo partly drawn) [II-35, (S)-2-(2-bromothiazole-4-carboxamido)-N1-(1-(2-(2-adamantylamino)-2-oxoethyl)-2-oxo-1,2-dihydropyridin-3-yl)-N6-methyl-5-oxohexanediamide] | 40 to 400 | 1 to 3 | 1 to 10 |
| CNC(=O)C(=O)CC[C@H](NC(=O)c1csc(Cl)n1)C(=O)Nc1cccn(CC(=O)NC2C3CC4CC(C3)CC2C4)c1=O (stereo partly drawn) [II-36, (S)-2-(2-chlorothiazole-4-carboxamido)-N1-(1-(2-(2-adamantylamino)-2-oxoethyl)-2-oxo-1,2-dihydropyridin-3-yl)-N6-methyl-5-oxohexanediamide] | 40 to 400 | 1 to 3 | 1 to 10 |
| CNC(=O)C(=O)CC[C@H](NC(=O)c1cc(C)oc1C)C(=O)Nc1cccn(CC(=O)NC2C3CC4CC(C3)CC2C4)c1=O (stereo partly drawn) [II-37, (S)-2-(2,5-dimethylfuran-3-carboxamido)-N1-(1-(2-(2-adamantylamino)-2-oxoethyl)-2-oxo-1,2-dihydropyridin-3-yl)-N6-methyl-5-oxohexanediamide] | 40 to 400 | 1 to 3 | 1 to 10 |
| CNC(=O)C(=O)CC[C@H](NC(=O)c1nc(C)c(C)s1)C(=O)Nc1cccn(CC(=O)NC2C3CC4CC(C3)CC2C4)c1=O (stereo partly drawn) [II-38, (S)-2-(4,5-dimethylthiazole-2-carboxamido)-N1-(1-(2-(2-adamantylamino)-2-oxoethyl)-2-oxo-1,2-dihydropyridin-3-yl)-N6-methyl-5-oxohexanediamide] | 400 to 2500 | 3 to 5 | 1 to 10 |
| CNC(=O)C(=O)CC[C@H](NC(=O)c1nc(Br)cs1)C(=O)Nc1cccn(CC(=O)NC2C3CC4CC(C3)CC2C4)c1=O (stereo partly drawn) [II-39, (S)-2-(4-bromothiazole-2-carboxamido)-N1-(1-(2-(2-adamantylamino)-2-oxoethyl)-2-oxo-1,2-dihydropyridin-3-yl)-N6-methyl-5-oxohexanediamide] | 40 to 400 | 1 to 3 | 1 to 10 |
| CNC(=O)C(=O)CC[C@H](NC(=O)c1cc(Br)cs1)C(=O)Nc1cccn(CC(=O)NC2C3CC4CC(C3)CC2C4)c1=O (stereo partly drawn) [II-40, (S)-2-(4-bromothiophene-2-carboxamido)-N1-(1-(2-(2-adamantylamino)-2-oxoethyl)-2-oxo-1,2-dihydropyridin-3-yl)-N6-methyl-5-oxohexanediamide] | < 40 | 3 to 5 | < 1 |
| CNC(=O)C(=O)CC[C@H](NC(=O)c1scc(Br)c1C)C(=O)Nc1cccn(CC(=O)NC2C3CC4CC(C3)CC2C4)c1=O (stereo partly drawn) [II-41, (S)-2-(4-bromo-3-methylthiophene-2-carboxamido)-N1-(1-(2-(2-adamantylamino)-2-oxoethyl)-2-oxo-1,2-dihydropyridin-3-yl)-N6-methyl-5-oxohexanediamide] | 40 to 400 | 3 to 5 | 1 to 10 |
| CNC(=O)C(=O)CC[C@H](NC(=O)c1sccc1Br)C(=O)Nc1cccn(CC(=O)NC2C3CC4CC(C3)CC2C4)c1=O (stereo partly drawn) [II-42, (S)-2-(3-bromothiophene-2-carboxamido)-N1-(1-(2-(2-adamantylamino)-2-oxoethyl)-2-oxo-1,2-dihydropyridin-3-yl)-N6-methyl-5-oxohexanediamide] | 40 to 400 | 1 to 3 | 1 to 10 |
